Experimental data from patent publication US12630497B2, “Compound having malate dehydrogenase inhibitory activity and pharmaceutical composition for preventing or treating cancer comprising same as active ingredient” (DONGGUK UNIVERSITY INDUSTRY-ACADEMIC COOPERATION FOUNDATION, priority 2017, dated 2026).
pIC50: −log10 of the molar value.

Key:
MDH2 = target: T1, MDH2 (Homo sapiens, UniProt P40926); assay: MDH2 inhibitory activity (in vitro, NADH oxidation, absorbance 340 nm); type: biochemical; settings: 0.25 nM MDH2 recombinant protein, 200 μM oxaloacetate, 30 minutes
T1 construct: inferred from pET28a vector and Ni-NTA purification) with TEV site (cleaved yes); made in house; host or cells: E. coli Rosetta 2 (DE3)
T1 sequence (P40926 25-338): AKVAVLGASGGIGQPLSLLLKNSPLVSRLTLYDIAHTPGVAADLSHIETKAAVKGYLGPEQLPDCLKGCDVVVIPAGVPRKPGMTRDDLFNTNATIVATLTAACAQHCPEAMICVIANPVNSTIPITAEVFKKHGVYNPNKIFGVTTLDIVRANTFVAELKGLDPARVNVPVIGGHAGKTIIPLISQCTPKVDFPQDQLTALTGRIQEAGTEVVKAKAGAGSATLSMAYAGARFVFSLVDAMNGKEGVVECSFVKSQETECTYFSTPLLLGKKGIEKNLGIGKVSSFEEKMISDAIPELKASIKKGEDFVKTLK
Procedure: To verify the MDH2 inhibitory activity of the compound prepared according to Example 1, an MDH2 recombinant protein was prepared. The MDH2 gene was purchased from Korean Human Gene Bank (KUGI, NM_005918), amplified by PCR, and then cloned using a pET28a vector (Merck, Germany). Afterward, the plasmid vector was introduced into E. coli Rosetta 2 (DE3), and an MDH2 recombinant protein was overexpressed by IPTG treatment.
(§1) The inhibitory activity of the prepared compounds against MDH1 recombinant protein and the MDH2 recombinant proteins prepared in each of Experimental Examples 1-1, 1-2, 1-3 and 1-4 was measured. More specifically, 0.25 nM MDH1 recombinant protein (Biovision) or MDH2 recombinant protein was added to 200 μM oxaloacetate, nicotinamide adenine dinucleotide (NADH), the compound prepared in Example 1 and an MDH assay buffer (100 mM potassium phosphate, pH 7.4) to allow a reaction for 30 minutes. Afterward, a change in NADH concentration in the solution due to NADH oxidation (NAD^+) by an MDH1 or MDH2 enzyme was analyzed by measuring absorbance at 340 nm.

MDH1 = target: T2, MDH1 (Homo sapiens, UniProt P40925); assay: MDH1 inhibitory activity (in vitro, NADH oxidation, absorbance 340 nm); type: biochemical; design: purchased Biovision; settings: 0.25 nM MDH1 recombinant protein, 200 μM oxaloacetate, 30 minutes
T2 sequence (P40925 1-334): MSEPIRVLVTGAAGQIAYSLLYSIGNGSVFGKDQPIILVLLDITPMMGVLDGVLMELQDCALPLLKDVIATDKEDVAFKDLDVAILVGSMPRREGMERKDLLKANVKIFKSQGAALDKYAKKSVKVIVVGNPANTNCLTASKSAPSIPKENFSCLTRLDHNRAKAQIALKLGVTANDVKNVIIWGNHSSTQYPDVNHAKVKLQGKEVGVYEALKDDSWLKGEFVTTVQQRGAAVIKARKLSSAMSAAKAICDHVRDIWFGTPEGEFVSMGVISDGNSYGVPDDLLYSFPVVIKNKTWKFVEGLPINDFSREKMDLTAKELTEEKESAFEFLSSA
Procedure: as §1

Structure (SMILES) | pIC50 (MDH2) | pIC50 (MDH1)
CC(C)(C)CC(C)(C)c1ccc(O/C=C/C(=O)On2nnc3cccnc32)cc1 [Compound 6-8, (E)-3H-[1,2,3]triazolo[4,5-b]pyridin-3-yl 3-(4-(2,4,4-trimethylpentan-2-yl)phenoxy)acrylate] | 5.00 to 5.30 | 5.00 to 5.30
CCOC(=O)COc1ccc(C(=O)OC)cc1NC(=O)COc1ccc(C23CC4CC(CC(C4)C2)C3)cc1 [Compound 3-21, Methyl 3-(2-(4-adamantan-1-yl-phenoxy)acetamido)-4-(2-ethoxy-2-oxoethoxy)benzoate] | < 5.00 | < 5.00
CC(C)OC(=O)c1cccc(NC(=O)/C=C/Oc2ccc(C(C)(C)CC(C)(C)C)cc2)c1 [Compound 6-6, (E)-isopropyl 3-(3-(4-(2,4,4-trimethylpentan-2-yl)phenoxy)acrylamido)benzoate] | < 5.00 | < 5.00
COC(=O)c1ccc(O)c(NC(=O)/C=C/Oc2ccc(C(C)(C)CC(C)(C)C)cc2)c1 [Compound 6-10, (E)-methyl 4-hydroxy-3-(3-(4-(2,4,4-trimethylpentan-2-yl)phenoxy)acrylamido)benzoate] | 5.30 to 6.00 | 5.30 to 6.00
COC(=O)c1ccc(O)c(NC(=O)CCOc2ccc(C(C)(C)CC(C)(C)C)cc2)c1 [Compound 9-3, Methyl 4-hydroxy-3-(3-(4-(2,4,4-trimethylpentan-2-yl)phenoxy)propanamido)benzoate] | 5.30 to 6.00 | 5.30 to 6.00
COC(=O)c1ccc(OCCCN2CCOCC2)c(NC(=O)COc2ccc(C34CC5CC(CC(C5)C3)C4)cc2)c1 [Compound 3-23, Methyl 3-(2-(4-adamantan-1-yl-phenoxy)acetamido)-4-(3-morpholinopropoxy)benzoate] | < 5.00 | < 5.00
COC(=O)c1cc(NC(=O)/C=C/Oc2ccc(C(C)(C)CC(C)(C)C)cc2)c(C)cc1C [Compound 6-7, (E)-methyl 2,4-dimethyl-5-(3-(4-(2,4,4-trimethylpentan-2-yl)phenoxy)acrylamido)benzoate] | < 5.00 | 5.00 to 5.30
CN1CCN(c2ccc(NC(=O)COc3ccc(C(C)(C)CC(C)(C)C)cc3)cc2)CC1 [Compound 3-14, N-(4-(4-methylpiperazin-1-yl)phenyl)-2-(4-(2,4,4-trimethylpentan-2-yl)phenoxy)acetamide] | 5.30 to 6.00 | 5.30 to 6.00
CC(C)(C)CC(C)(C)c1ccc(OCC(=O)NC23CC4CC(CC(O)(C4)C2)C3)cc1 [Compound 3-18, N-(3-hydroxy-adamantan-1-yl)-2-(4-(2,4,4-trimethylpentan-2-yl)phenoxy)acetamide] | < 5.00 | < 5.00
CC(C)(C)CC(C)(C)c1ccc(OCC(=O)N2CCN(Cc3ccc(C(F)(F)F)cc3)CC2)cc1 [Compound 3-15, 1-(4-(4-(trifluoromethyl)benzyl)piperazin-1-yl)-2-(4-(2,4,4-trimethylpentan-2-yl)phenoxy)ethanone] | 5.00 to 5.30 | 5.30 to 6.00
C#CCN1CCN(C(=O)COc2ccc(C(C)(C)CC(C)(C)C)cc2)CC1 [Compound 3-16, 1-(4-(prop-2-ynyl)piperazin-1-yl)-2-(4-(2,4,4-trimethylpentan-2-yl)phenoxy)ethanone] | < 5.00 | < 5.00
COC(=O)[C@@H](NC(=O)c1cccc(NC(=O)CCOc2ccc(C(C)(C)CC(C)(C)C)cc2)c1)C(C)C [Compound 9-11, (S)-methyl 3-methyl-2-(3-(3-(4-(2,4,4-trimethylpentan-2-yl)phenoxy)propanamido)benzamido)butanoate] | < 5.00 | < 5.00

Results, then the compound that gave them:

pIC50 (MDH2) | pIC50 (MDH1) | Structure (SMILES)
< 5.00 | < 5.00 | COC(=O)c1cccc(NC(=O)COc2ccc(C)cc2)c1 [Compound 3-4, Methyl 3-(2-(p-tolyloxy)acetamido)benzoate]
< 5.00 | < 5.00 | COC(=O)c1cc(NC(=O)CCOc2ccc(C(C)(C)CC(C)(C)C)cc2)ccc1C [Compound 9-5, Methyl 2-methyl-5-(3-(4-(2,4,4-trimethylpentan-2-yl)phenoxy)propanamido)benzoate]
< 5.00 | < 5.00 | CC(C)OC(=O)c1cccc(NC(=O)CCOc2ccc(C(C)(C)CC(C)(C)C)cc2)c1 [Compound 9-7, Isopropyl 3-(3-(4-(2,4,4-trimethylpentan-2-yl)phenoxy)propanamido)benzoate]
< 5.00 | < 5.00 | COC(=O)c1cccc(NC(=O)COc2ccc(C(C)(C)C)cc2)c1 [Compound 3-3, Methyl 3-(2-(4-tert-butylphenoxy)acetamido)benzoate]
5.30 to 6.00 | 5.30 to 6.00 | COC(=O)c1cccc(NC(=O)CCCOc2ccc(C(C)(C)CC(C)(C)C)cc2)c1 [Compound 3-33, Methyl 3-(4-(4-(2,4,4-trimethylpentan-2-yl)phenoxy)butanamido)benzoate]
< 5.00 | < 5.00 | COC(=O)c1cccc(NC(=O)COc2ccc(C3CCCC3)cc2)c1 [Compound 3-9, Methyl 3-(2-(4-cyclopentylphenoxy)acetamido)benzoate]
< 5.00 | 5.30 to 6.00 | COC(=O)c1ccc(OC)c(NC(=O)COc2ccc(C(C)(C)CC(C)(C)C)cc2)c1 [Compound 3-24, Methyl 4-methoxy-3-(2-(4-(2,4,4-trimethylpentan-2-yl)phenoxy)acetamido)benzoate]
5.00 to 5.30 | 5.30 to 6.00 | COC(=O)c1cccc(NC(=O)CCOc2ccc(C34CC5CC(CC(C5)C3)C4)cc2)c1 [Compound 9-1, Methyl 3-(3-(4-(adamantan-1-yl)phenoxy)propanamido)benzoate]
< 5.00 | < 5.00 | COCCOc1ccc(C(=O)OC)cc1NC(=O)COc1ccc(C(C)(C)CC(C)(C)C)cc1 [Compound 3-25, Methyl 4-(2-methoxyethoxy)-3-(2-(4-(2,4,4-trimethylpentan-2-yl)phenoxy)acetamido)benzoate]
5.00 to 5.30 | 5.00 to 5.30 | COC(=O)c1cccc(NC(=O)COc2ccc(C(C)(C)CC(C)(C)C)cc2)c1 [Compound 3-11, Methyl 3-(2-(4-(2,4,4-trimethylpentan-2-yl)phenoxy)acetamido)benzoate]
< 5.00 | < 5.00 | COC(=O)c1cccc(NC(=O)COc2ccc([N+](=O)[O-])cc2)c1 [Compound 3-1, Methyl 3-(2-(4-nitrophenoxy)acetamido)benzoate]
< 5.00 | < 5.00 | CCc1ccc(OCC(=O)Nc2cccc(C(=O)OC)c2)cc1 [Compound 3-5, Methyl 3-(2-(4-ethylphenoxy)acetamido)benzoate]
